# Measured values taken from ChEMBL document CHEMBL1221326, “Synthesis, biological evaluation, and docking studies of novel heterocyclic diaryl compounds as selective COX-2 inhibitors” (Bioorg Med Chem, 2010).
# Legend:
# [1] = target: T1, Prostaglandin G/H synthase 1 (Ovis aries) (UniProt P05979); test: Inhibition of sheep COX1 at 10 uM by enzyme immunoassay
# T1 sequence (whole entry): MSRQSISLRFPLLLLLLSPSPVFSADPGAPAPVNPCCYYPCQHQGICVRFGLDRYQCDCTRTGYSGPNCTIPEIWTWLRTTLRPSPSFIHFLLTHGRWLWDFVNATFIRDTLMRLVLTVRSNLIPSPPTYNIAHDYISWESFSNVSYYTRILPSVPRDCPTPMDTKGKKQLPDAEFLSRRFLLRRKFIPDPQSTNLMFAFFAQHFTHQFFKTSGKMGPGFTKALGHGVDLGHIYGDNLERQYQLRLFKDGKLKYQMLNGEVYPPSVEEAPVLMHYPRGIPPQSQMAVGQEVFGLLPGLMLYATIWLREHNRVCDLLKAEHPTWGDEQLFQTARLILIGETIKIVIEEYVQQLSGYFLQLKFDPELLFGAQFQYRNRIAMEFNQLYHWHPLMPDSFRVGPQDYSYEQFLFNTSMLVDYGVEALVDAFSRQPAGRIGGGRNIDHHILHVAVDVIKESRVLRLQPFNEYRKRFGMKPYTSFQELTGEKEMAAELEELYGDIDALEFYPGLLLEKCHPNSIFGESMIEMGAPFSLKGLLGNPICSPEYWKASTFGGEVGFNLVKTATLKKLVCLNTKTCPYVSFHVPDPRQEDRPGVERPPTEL
# [2] = target: T2, Prostaglandin G/H synthase 1 (Ovis aries, UniProt P05979); test: Inhibition of sheep COX1 by enzyme immunoassay
# T2 sequence (P05979 whole entry): T1 sequence (whole entry)
# Ovis aries = organism: Ovis aries; test: Selectivity index, ratio of IC50 for sheep COX1 to IC50 for sheep COX2
inhibition [1],IC50 [2],Ratio IC50 (Ovis aries),Compound
95.6%,4 nM,,COc1ccc(-n2nc(C(F)(F)F)cc2-c2ccc3c(c2)oc(=O)n3C)cc1
59.8%,61 nM,,COc1ccc(C2=C(c3ccc4c(c3)oc(=O)n4C)COC2=O)cc1
55.5%,6000 nM,6,Cn1c(=O)oc2cc(-c3cc(C(F)(F)F)nn3-c3ccc(F)cc3)ccc21
91.2%,1000 nM,,Cn1c(=O)oc2cc(-c3cc(C(F)(F)F)nn3-c3ccc(Cl)cc3)ccc21
